Series [1] concerns Human immunodeficiency virus 1. The series is described as follows: Antiviral activity against HIV1 infected in human H9 cells assessed as decrease in p24 antigen production incubated for 7 days by ELISA. Type of series: functional, organism-based. The settings on record: Human immunodeficiency virus 1, H9, 168 h. (In general: An ELISA detects its analyte on a solid surface through an enzyme-linked reagent.)

The nature of series [2]: Cytotoxicity against human H9 cells assessed as reduction in cell viability incubated for 7 days by MTT assay. In kind it is cell-based. For orientation: Tetrazolium assays rely on reduction of a dye to a coloured formazan, in cell work by metabolically active cells.
Series [3] can be described thus: Selectivity index, ratio of CC50 for human H9 cells to EC50 for antiviral activity against HIV-1. In kind it is toxicity. Particulars: read-out: Ratio CC50/EC50.

In the case of `COc1ccccc1NC(=O)c1c(N)cccc1S(=O)(=O)c1ccc(C(=O)O)cc1`, the half-maximal effective concentration (EC50) (in general, the concentration at which the effect is half-maximal) in series [1] was found to be 235 µM.
Same read-out and setting: under `COc1ccccc1NC(=O)c1c(N)cccc1Sc1ccc(C(=O)O)cc1` stands 252 µM.
Turning to `COc1ccccc1NC(=O)c1c(N)cccc1Sc1ccc(F)cc1`, in series [2], the CC50 (commonly the concentration at which the toxic effect on the cells reaches its halfway point) at 168 h came out at 543 µM. Moreover, the concentration for a half-maximal effect (EC50) in series [1] is 44.8 µM. Besides, in series [3], the selectivity ratio stood at 15.6.
In the same order, the values of `COc1ccccc1NC(=O)c1c(N)cccc1S(=O)(=O)c1ccc(F)cc1` are 499 µM, 12.3 µM and 53.7.
In the same order, the values of `COc1ccccc1NC(=O)c1c(N)cccc1Sc1ccncc1` are 569 µM, 176 µM and 3.23.
With `Nc1cccc(Sc2ccc([N+](=O)[O-])cc2)c1C(=O)Nc1ccccc1O`, in series [2], the half-maximal cytotoxic concentration (CC50) at 168 h is 153 µM. In series [1], the EC50 is 9.8 µM. Moreover, in series [3], the selectivity ratio was found to be 15.6.
The corresponding values for `CS(=O)(=O)Oc1ccccc1NC(=O)c1c(N)cccc1Sc1ccc([N+](=O)[O-])cc1` are 422 µM, 79.9 µM and 5.28.
As to `Nc1cccc(Sc2ccc([N+](=O)[O-])cc2)c1C(=O)Nc1ccccc1I`, the CC50 at 168 h in series [2] turned out to be 407 µM. Also, the concentration giving a half-maximal response (EC50) in series [1] came out at 125 µM. In addition, the selectivity ratio in series [3] came to 3.26.
As to `COc1ccc(NC(=O)c2c(N)cccc2Sc2ccc([N+](=O)[O-])cc2)c(OC)c1`, the CC50 at 168 h in series [2] was determined as 82.5 µM. In addition, in series [1], the EC50 was determined as 20.3 µM. Besides, the selectivity ratio in series [3] was 4.06.
With `COc1ccccc1NC(=O)c1c(N)cccc1Sc1ccc(C(F)(F)F)cc1`, the CC50 at 168 h in series [2] stood at 352 µM. Besides, in series [1], the EC50 was 24.2 µM. In addition, in series [3], the selectivity ratio came to 14.6.
Regarding `COc1ccccc1NC(=O)c1c(N)cccc1S(=O)(=O)c1cc(C)cc(C)c1`, in series [1], the EC50 was 244 µM.
In the case of `COc1ncccc1NC(=O)c1c(N)cccc1Sc1ccc([N+](=O)[O-])cc1`, the CC50 at 168 h in series [2] amounted to 182 µM. The EC50 in series [1] was found to be 25.9 µM. Besides, in series [3], the selectivity ratio worked out at 7.03.
Regarding `COc1ccccc1NC(=O)c1c(N)cccc1S(=O)(=O)c1ccc(C(F)(F)F)cc1`, the CC50 at 168 h in series [2] was 444 µM. Also, the EC50 in series [1] worked out at 4.62 µM. Also, the selectivity ratio in series [3] turned out to be 96.5.
As for `COc1ncccc1NC(=O)c1c(N)cccc1S(=O)(=O)c1ccc([N+](=O)[O-])cc1`, the EC50 in series [1] was found to be 228 µM.
For `Nc1cccc(S(=O)(=O)c2ccc([N+](=O)[O-])cc2)c1C(=O)Nc1ccccc1I`, in series [2], the 50% cytotoxic concentration (CC50) at 168 h turned out to be 382 µM. Moreover, the EC50 in series [1] was 30.9 µM. Further, the selectivity ratio in series [3] turned out to be 12.4.
`COc1ccccc1NC(=O)c1c(N)cccc1Sc1cc(C)cc(C)c1`: in series [2], the cytotoxic concentration (CC50) at 168 h was 181 µM. Also, in series [1], the EC50 was found to be 9.6 µM. Also, in series [3], the selectivity ratio was determined as 18.9.
In the same order, the values of `COc1ccccc1NC(=O)c1c(N)cccc1Sc1ccc([N+](=O)[O-])cc1` are 462 µM, 2.12 µM and 263.
The corresponding values for `Nc1ccccc1NC(=O)c1c(N)cccc1Sc1ccc([N+](=O)[O-])cc1` are 427 µM, 15.1 µM and 28.3.

(Values after ChEMBL document CHEMBL4406899, “Design, synthesis, and biological evaluation of 2-amino-N-(2-methoxyphenyl)-6-((4-nitrophenyl)sulfonyl)benzamide derivatives as potent HIV-1 Vif inhibitors” (Bioorg Med Chem Lett, 2019).)
